# What was measured:
# [1] = tested on: CUG-repeat RNA foci (mutant DMPK mRNA); assay: FISH detection and quantification of CUG-repeat RNA foci in DM1 patient myoblasts; format: cell-based, human; conditions: DM1 myoblasts ~1250 CTG, 7 days, 15 μM compound 15 or 5 μM compound 32, vs DMSO (FIG. 4)
# Protocol: Human myoblasts were obtained from the Myosix institute associated with the Association Frangaise contre les Myopathies (AFM). Five primary myoblast lines were obtained as controls, and one line from a DM1 patient with a 3.8 Kb CTG triplet amplification corresponding to approximately 1250 CTG repeats. The human myoblasts are cultivated in HAM-F10 media (SIGMA N6635) with 15% FBS, 1% chick embryo extract, and 390 ng/ml of dexamethasone. One day before adding compounds, 2×10^5 cells were plated in 100 mm plates (for CUGBP1 western blot or RT-PCR alternative splicing assay) or 2×10^4 cells/well are seeded in 12-well plates containing 12 mm round glass coverslips (for FISH to detect RNA foci). […]
# For fluorescent in situ hybridization (FISH), cells grown on glass coverslips were fixed in PBS containing 4% paraformaldehyde, dehydrated for 2 hours in 70% ethanol, and incubated overnight with 10 ng of probe in 2×SSC 40% formamide at 37° C. […] To quantify the CUG repeat RNA aggregates, the 3D images of the foci were first processed by maximum intensity projection with the MetaMorph™ software (Molecular Devices Inc.), resulting in a 2D image containing all the foci in each cell. […] For each treatment condition, 60 to 80 cells were analyzed and all the data points were presented, with the median value indicated. […]
# CUGBP1 = assay: Western blot of CUGBP1 protein levels in myoblasts; format: cell-based, human; conditions: 20 μM, 7 days (FIG. 7); for reduction of CUGBP1 levels: DM1 myoblasts
# Protocol: Human myoblasts were obtained from the Myosix institute associated with the Association Frangaise contre les Myopathies (AFM). Five primary myoblast lines were obtained as controls, and one line from a DM1 patient with a 3.8 Kb CTG triplet amplification corresponding to approximately 1250 CTG repeats. The human myoblasts are cultivated in HAM-F10 media (SIGMA N6635) with 15% FBS, 1% chick embryo extract, and 390 ng/ml of dexamethasone. One day before adding compounds, 2×10^5 cells were plated in 100 mm plates (for CUGBP1 western blot or RT-PCR alternative splicing assay) or 2×10^4 cells/well are seeded in 12-well plates containing 12 mm round glass coverslips (for FISH to detect RNA foci). One day after plating, media is replaced with fresh media containing the compounds at the desired concentration in this manner: the media is put in a screw-cap tube and heated at 37° C. The 20 mM compound stock in 100% DMSO is pipetted directly into the media and the tube is mixed well by inversion and gentle vortexing, and immediately overlayed on the cells. Pure DMSO is used for the control cells. Final concentrations on myoblasts are never higher than 0.5%. This procedure is repeated twice during the seven days of treatment, the media is thus replaced with fresh media containing compound every 2-3 days. Cells are collected or fixed for FISH after one week.
# For Western blots, CUGBP1 was detected with the 3B1-3D11 monoclonal antibody (mAb) (SIGMA C5112) and GAPDH was detected with the 6C5 mAb (Millipore MAB374). The enhanced chemiluminescence signal (ECL) was acquired and quantified with the ChemiDoc™ MP imaging system (Bio-Rad). For alternative splicing assays, total RNA was collected with Trizol™ (Invitrogen), and 1 μg was used for reverse transcription with random primers with the RevertAid™ H Minus M-MuL RT (Fermentas) according to manufacturer's instructions. For MBNL2, PCR amplification was performed with primers 5′-[…]-3′ (SEQ ID NO:1) and 5′-[…]-3′ (SEQ ID NO:2). SERCA1 was amplified with primers 5′-[…]-3′ (SEQ ID NO:3) and 5′-[…]-3′ (SEQ ID NO:4). For TNNT2 (cardiac Troponin T), PCR was carried out with primers 5′-[…]-3′ (SEQ ID NO:5) and 5′-[…]-3′ (SEQ ID NO:6). The alternative splicing of the hnRNPA2/B1 transcript was detected with the primers 5′-[…]-3′ (SEQ ID NO:7) and 5′-[…]-3′ (SEQ ID NO:8). PCR was performed with Taq using standard conditions but the number of amplification cycles was optimized to be in the quantitative range for each gene. The products of PCR amplification were resolved on 3.5% agarose gels containing Gelred™ (Biotium) and images were acquired and quantified with the ChemiDoc™ MP imaging system (Bio-Rad). […]
smiles,measurement,setting,value
CCCc1c(C(=O)N(Cc2ccccc2)Cc2cccs2)cnn1-c1ccccc1 [Compound 32],decrease in RNA foci formation (surface occupied by RNA foci in the nucleus),[1],more than two-fold decrease
same,reduction of CUGBP1 levels,CUGBP1,30%
CCCN(CCC)S(=O)(=O)c1ccc(NS(=O)(=O)Cc2ccccc2)cc1 [Compound 15],decrease in RNA foci formation (surface occupied by RNA foci in the nucleus),[1],more than two-fold decrease
same,reduction of CUGBP1 levels,CUGBP1,85%
same,change of CUGBP1 levels in WT cells,CUGBP1; WT myoblasts,does not change

# Reference: patent US10092574B2, “Inhibitors of polynucleotide repeat-associated RNA foci and uses thereof” (VALORISATION-RECHERCHE, LIMITED PARTNERSHIP, priority 2013, dated 2018)
